# Data as given in PMC4207131, “Cyclic Adenosine 5′-Diphosphate Ribose Analogs without a “Southern” Ribose Inhibit ADP-ribosyl Cyclase–Hydrolase CD38” (Journal of Medicinal Chemistry, 2014).
# “Also recorded” adds a separate entry of the source. Read-outs that look alike come from different tables or passages of the source.
# Experiments:
# [1] = target: T1, CD38 catalytic domain (shCD38) (Homo sapiens, UniProt P28907, N100D/N164A/N209D/N219D); parameters: incubating 1 μM cADPR with 1 μg/mL CD38 catalytic domain for 10 min; made in house; conditions: equivalent 8-substituted cIDPRs; read-out: IC50, inhibition of shCD38-mediated cADPR hydrolysis; cited from earlier work
# T1 sequence (P28907 43-300 N100D/N164A/N209D/N219D limits assumed): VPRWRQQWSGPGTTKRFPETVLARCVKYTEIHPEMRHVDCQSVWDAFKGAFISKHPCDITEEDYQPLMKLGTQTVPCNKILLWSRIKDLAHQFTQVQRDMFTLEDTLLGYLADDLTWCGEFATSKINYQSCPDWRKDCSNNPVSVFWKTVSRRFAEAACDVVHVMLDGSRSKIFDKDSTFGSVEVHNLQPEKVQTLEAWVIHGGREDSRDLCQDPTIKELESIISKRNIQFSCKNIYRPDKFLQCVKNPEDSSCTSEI
# [2] = cited from earlier work
# [3] = cited from earlier work; remark: listed apart in the source
# [4] = tested on: Ca^2+-release in permeabilized T-cells; parameters: method as in PMID 12932045, PMID 19492987; conditions: cited from earlier work
# [5] = target: T1, CD38 catalytic domain (shCD38); assay: RP-HPLC study of ligand hydrolysis by shCD38; conditions: for hydrolysis by shCD38 at enzyme assay concentration: shCD38 1 μg/mL; for hydrolysis by shCD38 at enzyme assay concentration / hydrolysis by shCD38 at high concentration / time to 50% hydrolysis: ligand 1 mM; for hydrolysis by shCD38 at high concentration / time to 50% hydrolysis: shCD38 4 mg/mL; for time to 50% hydrolysis: Tris-HCl pH 8, room temperature
# Procedure: Incubation of 7 (1 mM final concentration) with 4 mg/mL shCD38 was monitored using RP-HPLC.
# Therefore, further HPLC experiments were carried out using shCD38 concentrations of 1 μg/mL and either cIDPR or 7 to observe the effect of CD38 under conditions that reflect the enzyme assay (Supporting Information, Figure S3).
# The solution containing the CD38 catalytic domain was adjusted to the desired concentration using Tris-HCl buffer (20 mM, pH 8), and 50 μL therefrom was added to the inhibitor (0.05 μmol) in an Eppendorf tube at room temperature. At a given time point, a sample of 5 μL was removed and diluted with 95 μL of Milli-Q water. Then 10 μL of this sample was injected directly into the analytical HPLC system (see section General in Experimental Section), eluting at 1 mL/min with an isocratic ion-pair buffer: 0.17% (m/v) cetrimide and 45% (v/v) phosphate buffer (pH 6.4) in MeOH.
# [6] = target: T1, CD38 catalytic domain (shCD38); assay: Inhibition of shCD38-mediated cADPR hydrolysis (fluorimetric cycling assay); type: biochemical; parameters: incubating 1 μM cADPR with 1 μg/mL CD38 catalytic domain for 10 min; made in house; conditions: 1 μM cADPR, 1 μg/mL CD38 catalytic domain, 10 min, 20–24 °C, 25 mM sodium acetate pH 4.5
# Procedure: The inhibition of cADPR hydrolysis by various concentrations of analog (0–1 mM) was determined by incubating 1 μM cADPR with 1 μg/mL CD38 catalytic domain for 10 min at 20–24 °C in 25 mM sodium acetate, pH 4.5. The reaction was stopped by the addition of 150 mM HCl. The precipitated protein was filtered, and the pH was neutralized with Tris base. After the mixture was diluted 20-fold, the concentration of the unhydrolyzed cADPR present in the diluted reaction mixture was assayed by the fluorimetric cycling assay as described previously.[52]
compound,measurement,setting,value
Nc1nc2c(=O)n3cnc2n1C1OC(COP(=O)(O)OP(=O)(O)OCC2OC3C(O)C2O)C(O)C1O (stereo not drawn) [8-NH2-cIDPR],IC50,[1],56 µM
"N=c1c2ncn3c2ncn1[C@@H]1O[C@H](COP(=O)(O)OP(=O)(O)OC[C@H]2O[C@@H]3[C@H](O)[C@@H]2O)[C@@H](O)[C@H]1O [cADPR, Cyclic adenosine 5′-diphosphate ribose]",pKa of the N6-amino form,[2],8.3
same,hydrolysis at the N1 link,[3]; neutral aqueous solution and physiological conditions,hydrolyzed at the N1 link in both neutral aqueous solution and under physiological conditions
"N=c1c2ncn3c2ncn1[C@@H]1C[C@H](COP(=O)(O)OP(=O)(O)OC[C@H]2O[C@@H]3[C@H](O)[C@@H]2O)[C@@H](O)[C@H]1O [cADPcR, cyclic adenosine 5′-diphosphate carbocyclic ribose]",pKa of the N6-amino dissociation,[2],8.9
"O=c1c2ncn3c2ncn1[C@@H]1O[C@H](COP(=O)(O)OP(=O)(O)OC[C@H]2O[C@@H]3[C@H](O)[C@@H]2O)[C@@H](O)[C@H]1O [compound 2, N1-cyclic inosine 5′-diphosphate ribose]",ionization over the pH range,[2],no ionization between 6.8 and 10.9
same,Ca2+-release agonism,[4]; permeabilized T-cells,agonist for Ca^2+-release with almost equivalent potency to cADPR
same,hydrolysis by shCD38 at enzyme assay concentration,[5]; listed as cIDPR,neither cIDPR (2) or 8-NH2-N9-butyl-; also recorded: not hydrolyzed
same,hydrolysis by shCD38 at high concentration,[5],hydrolyzed by the enzyme at 4 mg/mL but at a slower rate than 7
same,time to 50% hydrolysis,[5],420 min
same,chemical and biological stability,[3],Chemically and biologically stable
O=c1c2nc(Br)n3c2ncn1[C@@H]1O[C@H](COP(=O)(O)OP(=O)(O)OC[C@H]2O[C@@H]3[C@H](O)[C@@H]2O)[C@@H](O)[C@H]1O [compound 3],"Ca2+-release agonism, membrane permeant",[4],stable membrane permeant agonist of Ca^2+ release
same,chemical and biological stability,[3],Chemically and biologically stable
"O=c1c2ncn3c2ncn1[C@@H]1O[C@H](COP(=O)(O)OP(=O)(O)OCCCC3)[C@@H](O)[C@H]1O [compound 4, N1-Cyclic Hypoxanthine-N9-hydroxybutyl Diphosphate Ribose]",hydrolysis by shCD38 at high concentration,[5],hydrolyzed by the enzyme at 4 mg/mL but at a slower rate than 7
"O=c1c2nc(Br)n3c2ncn1[C@@H]1O[C@H](COP(=O)(O)OP(=O)(O)OCCCC3)[C@@H](O)[C@H]1O [compound 5, N1-Cyclic-8-bromohypoxanthine-N9-hydroxybutyl Diphosphate Ribose]",IC50,[6],27 µM
same,hydrolysis by shCD38 at high concentration,[5],hydrolyzed by the enzyme at 4 mg/mL but at a slower rate than 7
"[N-]=[N+]=Nc1nc2c(=O)n3cnc2n1CCCCOP(=O)(O)OP(=O)(O)OC[C@H]1O[C@@H]3[C@H](O)[C@@H]1O [compound 6, N1-Cyclic-8-azidohypoxanthine-N9-hydroxybutyl Diphosphate Ribose]",IC50,[6],6.4 µM
"Nc1nc2c(=O)n3cnc2n1CCCCOP(=O)(O)OP(=O)(O)OC[C@H]1O[C@@H]3[C@H](O)[C@@H]1O [compound 7, N1-Cyclic-8-aminohypoxanthine-N9-hydroxybutyl Diphosphate Ribose]",IC50,[6],3.3 µM
same,change of the ligand peak in the control without shCD38,[5]; parallel control containing no shCD38,no change in the original peak
same,hydrolysis by shCD38 at enzyme assay concentration,[5],not hydrolyzed
same,hydrolysis by shCD38 at high concentration,[5],faster hydrolysis
same,time to 50% hydrolysis,[5],105 min
